Assay results published in the supplement of paper PMC10307832.

Experiments:
Experiment in all cases: relative viability (nuclei count vs DMSO), 5 days (fraction); higher = more cells survive
Zosuquidar + Dasatinib = compound: O[C@@H](COc1cccc2ncccc12)CN1CCN([C@@H]2c3ccccc3[C@@H]3[C@H](c4ccccc42)C3(F)F)CC1 [Zosuquidar] + Cc1nc(Nc2ncc(C(=O)Nc3c(C)cccc3Cl)s2)cc(N2CCN(CCO)CC2)n1 [Dasatinib] (partner 0.075 µM)
Summary of the method: (§1)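 Lung cancer cell lines were seeded in 1536-well plates and dosed by pin tool the next day, with either a single drug or a fixed anchor-drug dose combined with five library-drug doses (not always all listed) spaced in √10 steps. Five days later, one step fixed the cells and stained their nuclei (final 0.05% Triton X-100, 1% formaldehyde, 1 ug/ml Hoechst), and nuclei were counted on 4× images. Relative viability is the nuclei count in treated wells divided by the count in vehicle wells, and each value is the median of duplicate plates.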

[1] = compound: COc1cc2nccc(Oc3ccc(NC(=O)C4(C(=O)Nc5ccc(F)cc5)CC4)cc3)c2cc1OC [Cabozantinib] + C[C@@H](Oc1cc(-c2cnn(C3CCNCC3)c2)cnc1N)c1c(Cl)ccc(F)c1Cl [Crizotinib] (partner 1 µM)
Summary of the method: as §1

Cabozantinib + Lapatinib = compound: COc1cc2nccc(Oc3ccc(NC(=O)C4(C(=O)Nc5ccc(F)cc5)CC4)cc3)c2cc1OC [Cabozantinib] + CS(=O)(=O)CCNCc1ccc(-c2ccc3ncnc(Nc4ccc(OCc5cccc(F)c5)c(Cl)c4)c3c2)o1 [Lapatinib] (partner 2 µM)
Summary of the method: as §1

| Cell Line | relative viability (Zosuquidar + Dasatinib; first compound 0.01 µM) | relative viability (Zosuquidar + Dasatinib; first compound 0.03162 µM) | relative viability (Zosuquidar + Dasatinib; first compound 0.3162 µM) | relative viability (Zosuquidar + Dasatinib; first compound 1 µM) | relative viability ([1]; first compound 0.02 µM) | relative viability ([1]; first compound 0.06325 µM) | relative viability ([1]; first compound 0.2 µM) | relative viability ([1]; first compound 0.6325 µM) | relative viability ([1]; first compound 2 µM) | relative viability (Cabozantinib + Lapatinib; first compound 0.02 µM) | relative viability (Cabozantinib + Lapatinib; first compound 0.06325 µM) | relative viability (Cabozantinib + Lapatinib; first compound 0.2 µM) | relative viability (Cabozantinib + Lapatinib; first compound 0.6325 µM) | relative viability (Cabozantinib + Lapatinib; first compound 2 µM) | relative viability (Zosuquidar + Dasatinib; first compound 0.1 µM) |
| --- | --- | --- | --- | --- | --- | --- | --- | --- | --- | --- | --- | --- | --- | --- | --- |
| NCI-H520 | 0.224 | 0.156 | 0.254 | 0.189 | 1.03 | 0.843 | 0.758 | 0.644 | 0.596 | 1.08 | 0.924 | 0.72 | 0.973 | 0.566 | – |
| NCI-H1915 | 0.311 | 0.305 | 0.337 | 0.283 | 0.923 | 0.904 | 0.888 | 0.896 | 0.996 | 0.946 | 0.987 | 0.967 | 0.999 | 0.989 | 0.308 |
| NCI-H1299 | – | – | – | – | 0.977 | 0.998 | 0.648 | 0.973 | 0.993 | 0.95 | 1.04 | 0.936 | 1.03 | 1.04 | – |
| HCC-827 | 0.293 | 0.348 | 0.272 | 0.351 | 0.888 | 0.942 | – | 0.939 | 0.978 | 0.19 | 0.233 | – | 0.183 | 0.179 | 0.237 |
| EMC-BAC-2 | 0.325 | 0.34 | 0.339 | 0.325 | 0.841 | 0.779 | 0.781 | 0.817 | 0.827 | 0.841 | 0.927 | 0.88 | 0.879 | 0.973 | 0.373 |
| NCI-H650 | 0.442 | 0.344 | 0.517 | 0.455 | 0.857 | 0.692 | 0.836 | 0.792 | 0.757 | 0.787 | 1.06 | 1.23 | 0.491 | 0.766 | 0.373 |
| NCI-H1792 | 0.819 | 0.514 | 0.927 | 0.757 | 0.841 | 1.1 | 0.999 | 0.962 | 1.03 | 0.78 | 1.13 | 0.846 | 0.862 | 0.85 | – |
| NCI-H2009 | 0.281 | 0.174 | 0.331 | 0.284 | 1.11 | 1.09 | 1.15 | 1.09 | 1.04 | 1.06 | 0.959 | 1 | 0.965 | 0.941 | 0.244 |
| NCI-H2405 | 0.208 | 0.174 | 0.228 | 0.215 | 0.933 | 0.862 | 0.872 | 0.873 | 0.895 | – | 1.16 | 1.2 | 1.1 | 1.02 | 0.208 |
